Laboratory results: patent US20210161997A1, “TREATING DISEASES VIA TARGETED MODULATION OF GENE SIGNALING NETWORKS” (Camp4 Therapeutics Corporation, priority 2018, published 2021)
Where a name gives a salt, the structure may show the parent alone. Read-outs that look alike come from different tables or passages of the source.

Columns and labels:
Format in all cases: cell-based
FN1 = experiment: RNA-seq of FN1 expression in compound-treated primary human hepatocytes; details: perturbed vs unperturbed, significance FPKM ≥1, log 2(fold change) ≥0.5, q-value ≤0.05
Experimental: (§1) Human hepatocytes were obtained from two donors from Massachusetts General Hospital, namely MGH54 and MGH63, and one donor from Lonza, namely HUM4111B. Cryopreserved hepatocytes were cultured in plating media for 16 hours, transferred to maintenance media for 4 hours. Cultured on serum-free media for 2 hours, then a compound was added. The hepatocytes were maintained on the serum-free media for 16 hours prior to gene expression analysis. Primary human hepatocytes were stored in the vapor phase of a liquid nitrogen freezer (about −130° C.).
(§2) Human hepatocytes cultured as described above were plated in 24-well format, adding 375,000 cells per well in a volume of 500 ul plating medium. Four hours before treatment, cells were washed with PBS and the medium was changed to either: fresh maintenance medium (complete) or modified maintenance medium.
(§3) Compound stocks were prepared at 1000× final concentration and added in a 2-step dilution to the medium to reduce risk of a compound precipitating out of solution when added to the cells, and to ensure reasonable pipetting volumes. One at a time, each compound was first diluted 10-fold in warm (about 37° C.) modified maintenance medium (initial dilution=ID), mixed by vortexing, and the ID was diluted 100-fold into the cell culture (e.g. 5.1 ul into 1 well of a 24-well plate containing 0.5 mL medium). The plate was mixed by carefully swirling and after all wells were treated and returned to the incubator overnight. If desired, separate plates/wells were treated with vehicle-only controls and/or positive controls. If using multi-well plates, controls were included on each plate. After about 18 hours, cells were harvested for further analysis, e.g., ChIP-seq, RNA-seq, ATAC-seq, etc.
(§4) This protocol is a modified version of the following protocols: MagMAX mirVana Total RNA Isolation Kit User Guide (Applied Biosystems #MAN0011131 Rev B.0), NEBNext Poly(A) mRNA Magnetic Isolation Module (E7490), and NEBNext Ultra Directional RNA Library Prep Kit for Illumina (E7420) (New England Biosystems #E74901).
(§5) The MagMAX mirVana kit instructions (the section titled “Isolate RNA from cells” on pages 14-17) were used for isolation of total RNA from cells in culture. Two hundred μl of Lysis Binding Mix was used per well of the multiwell plate containing adherent cells (usually a 24-well plate).
(§6) For mRNA isolation and library prep, the NEBNext Poly(A) mRNA Magnetic Isolation Module and Directional Prep kit was used. RNA isolated from cells above was quantified, and prepared in […] of each sample in 50 μl of nuclease-free water. This protocol may be run in microfuge tubes or in a 96-well plate.
All pass filter reads from each sample were mapped against the human genome (assembly GRCh38/GCA_000001405.15 “no alt” analysis set merged with hs38d1/GCA_000786075.2) using two pass mapping via STAR version 2.5.3a (alignment parameters alignIntronMin=20; alignIntronMax=1000000; outFilterMismatchNmax=999; outFilterMismatchNoverLmax=0.05; outFilterType=BySJout; outFilterMultimapNmax=20; alignSJoverhangMin=8; alignSJDBoverhangMin=1; alignMatesGapMax=1000000) (Dobin et al., Bioinformatics (2012) 29(1):15-21). Genomic alignments were converted to transcriptome alignments based on reference transcript annotations from the Human GENCODE Gene Set release 24 (Harrow et al., Genome Res. (2012) 22(9): 1760-1774). Using unique and multimapped transcriptomic alignments, gene-level abundance estimates were computed using RSEM version 1.3.0 (Li and Dewey, BMC Bioinformatics (2011) 12:323) in a strand-aware manner, and including confidence interval sampling calculations, to arrive at posterior mean estimates (PME) of abundances (counts and normalized FPKM—fragments per kilobase of exon per million mapped fragments) from the underlying Bayesian model. Standard QC were applied (read integrity, mapping statistics, library complexity, fragment bias) to remove unsatisfactory samples.

ANGPTL3 = experiment: RNA-seq of ANGPTL3 expression in compound-treated primary human hepatocytes; details: additional compounds (Table 13), linear fold change
Summary of the method: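 Cryopreserved primary human hepatocytes from three donors, plated at 375,000 cells/well, switched to complete or modified maintenance medium, then dosed with compound (stocks at 1000× final) for about 18 h. Poly(A) mRNA was sequenced directionally, mapped to GRCh38 with STAR, and gene-level abundance (counts, FPKM) estimated with RSEM against GENCODE 24.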

LECT2 = experiment: RNA-seq of LECT2 expression in compound-treated primary human hepatocytes
Experimental: as §1, §2, §3, §4, §5, §6
(§7) Standard QC were applied (read integrity, mapping statistics, library complexity, fragment bias) to remove unsatisfactory samples. […] Log 2 fold change and significance values were computed using PME count data (with replicates explicitly modeled versus pan-experiment controls), median ratio normalized, using maximum likelihood estimation rather than maximum a posteriori, and disabling the use of Cook's distance cutoff when determining acceptable adjusted p-values. […] RNA-seq signals were also normalized by read depth and visualized using the UCSC browser.
(§8) To identify small molecules that modulate target gene expression, primary human hepatocytes were prepared as a monoculture, and at least one small molecule compound was applied to the cells.
(§9) RNA-seq was performed to determine the effects of the compounds on the expression of the target genes in hepatocytes. Fold change was calculated by dividing the level of expression in the cell system that had been perturbed by the level of expression in an unperturbed system. Changes in expression having a p-value ≤0.05 were considered significant.
Significance was defined as an FPKM ≥1, a log 2(fold change) ≥0.5, and a q-value of ≤0.05 for all targets except for CPOX.

CPOX = experiment: RNA-seq of CPOX expression in compound-treated primary human hepatocytes
Experimental: as §1, §2, §3, §4, §5, §6, §7, §8, §9
Significance was defined as an FPKM ≥0.5 a log 2(fold change) ≥0.3, and a q-value of ≤0.05.

UGT1A1 = experiment: RNA-seq of UGT1A1 expression in compound-treated primary human hepatocytes
Summary of the method: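 Cryopreserved primary human hepatocytes from three donors were plated in 24-well format, then treated with compound diluted from 1000× stocks in serum-free maintenance medium for about 16–18 h. Poly(A) RNA-seq log2 fold change was computed against vehicle/pan-experiment controls. Significance required FPKM ≥1, log2FC ≥0.5 and q ≤0.05.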

JAG1 = experiment: RNA-seq of JAG1 expression in compound-treated primary human hepatocytes
Experimental: (§10) Human hepatocytes were obtained from two donors from Massachusetts General Hospital, namely MGH54 and MGH63, and one donor from Lonza, namely HUM4111B. Cryopreserved hepatocytes were cultured in plating media for 16 hours, transferred to maintenance media for 4 hours. Cultured on serum-free media for 2 hours, then a compound was added. The hepatocytes were maintained on the serum-free media for 16 hours prior to gene expression analysis. Primary human hepatocytes were stored in the vapor phase of a liquid nitrogen freezer (about -130° C.). Human hepatocytes cultured as described above were plated in 24-well format, adding 375,000 cells per well in a volume of 500 ul plating medium. Four hours before treatment, cells were washed with PBS and the medium was changed to either: fresh maintenance medium (complete) or modified maintenance medium. Compound stocks were prepared at 1000× final concentration and added in a 2-step dilution to the medium to reduce risk of a compound precipitating out of solution when added to the cells, and to ensure reasonable pipetting volumes. […] The plate was mixed by carefully swirling and after all wells were treated and returned to the incubator overnight. If desired, separate plates/wells were treated with vehicle-only controls and/or positive controls. If using multi-well plates, controls were included on each plate. After about 18 hours, cells were harvested for further analysis, e.g., ChIP-seq, RNA-seq, ATAC-seq, etc. This protocol is a modified version of the following protocols: MagMAX mirVana Total RNA Isolation Kit User Guide (Applied Biosystems #MAN0011131 Rev B.0), NEBNext Poly(A) mRNA Magnetic Isolation Module ([…]), and NEBNext Ultra Directional RNA Library Prep Kit for Illumina ([…]) (New England Biosystems #E74901). […] Two hundred μl of Lysis Binding Mix was used per well of the multiwell plate containing adherent cells (usually a 24-well plate). For mRNA isolation and library prep, the NEBNext Poly(A) mRNA Magnetic Isolation Module and Directional Prep kit was used. RNA isolated from cells above was quantified, and prepared in […] of each sample in 50 μl of nuclease-free water. This protocol may be run in microfuge tubes or in a 96-well plate. […] Genomic alignments were converted to transcriptome alignments based on reference transcript annotations from the Human GENCODE Gene Set release 24 (Harrow et al., Genome Res. […] Standard QC were applied (read integrity, mapping statistics, library complexity, fragment bias) to remove unsatisfactory samples. Differential gene expression was computed using the negative binomial model implemented by DESeq2 version 1.16.1 (Love et al., Genome Biol. (2014) 15(12):550). […] RNA-seq signals were also normalized by read depth and visualized using the UCSC browser. To identify small molecules that modulate target gene expression, primary human hepatocytes were prepared as a monoculture, and at least one small molecule compound was applied to the cells. RNA-seq was performed to determine the effects of the compounds on the expression of the target genes in hepatocytes. Fold change was calculated by dividing the level of expression in the cell system that had been perturbed by the level of expression in an unperturbed system.

NOTCH2 = experiment: RNA-seq of NOTCH2 expression in compound-treated primary human hepatocytes; details: primary human hepatocytes
Experimental: as §10

Structure (SMILES)	FN1 Fold Change (Log2) (FN1)	ANGPTL3-LINEAR FOLD CHANGE (ANGPTL3)	CPOX Fold change (Log2) (CPOX)	further results
CN1CCN(S(=O)(=O)c2ccc(-c3cnc(N)c(C(=O)Nc4cccnc4)n3)cc2)CC1 [AZD2858]	−1.23 Log2	0.3186		
CN(C)C/C=C/C(=O)Nc1cc2c(Nc3ccc(F)c(Cl)c3)ncnc2cc1O[C@H]1CCOC1 [Afatinib]	−0.98 Log2	0.3078		LECT2 Fold Change (Log2) (LECT2): −0.75 Log2
CCOC(=O)C1=C(COCCN)NC(C)=C(C(=O)OC)C1c1ccccc1Cl (stereo not shown) [Amlodipine Besylate]	−1.22 Log2	0.3035		LECT2 Fold Change (Log2) (LECT2): −0.55 Log2
CCN1CCN(c2ccc(Nc3cc(N(C)C(=O)Nc4c(Cl)c(OC)cc(OC)c4Cl)ncn3)cc2)CC1 [BGJ398]	−1.36 Log2	0.3368		
COc1cc(Nc2c(C#N)cnc3cc(OCCCN4CCN(C)CC4)c(OC)cc23)c(Cl)cc1Cl [Bosutinib]			0.34 Log2	
C=C1/C(=C\C=C2/CCC[C@]3(C)[C@@H]([C@H](C)CCCC(C)(C)O)CC[C@@H]23)C[C@@H](O)C[C@@H]1O [Calcitriol]	−0.79 Log2	0.483		LECT2 Fold Change (Log2) (LECT2): −1.82 Log2
COc1cc2c(Oc3ccc4[nH]c(C)cc4c3F)ncnc2cc1OCCCN1CCCC1 [Cediranib]	−0.79 Log2	0.4323		
CC(=O)N(O)CCCCCNC(=O)CCC(=O)N(O)CCCCCNC(=O)CCC(=O)N(O)CCCCCN [Deferoxamine mesylate]			0.37 Log2	
O=Cc1c2[nH]c3ccccc3c2cc2[nH]c3ccccc3c12 [FICZ]		0.3231	0.44 Log2	UGT1A1 Fold Change (Log2) (UGT1A1): 2.62 Log2
C[N+]1(C)CCC(OC(=O)C(O)(c2ccccc2)C2CCCC2)C1 (stereo not shown) [Glycopyrrolate]				CPOX Fold change (Log2) (CPOX; RNA-seq, primary human hepatocytes, significance FPKM ≥0.5, log 2(fold change) ≥0.3, q-value ≤0.05): 0.31 Log2
c1ccc2c(-c3cnn4cc(-c5ccc(N6CCNCC6)cc5)cnc34)ccnc2c1 [LDN193189]	−0.87 Log2	0.4204		JAG1 Fold Change (Log2) (JAG1; primary human hepatocytes): 2.07 Log2; Significant modulation of JAG1 (in words) (JAG1; summary of Table 6): significantly modulate only JAG1; NOTCH2 Fold Change (Log2) (NOTCH2): 0 Log2
O=C(O)CC[C@H]1CC[C@@](c2cc(F)ccc2F)(S(=O)(=O)c2ccc(Cl)cc2)CC1 [MK-0752]			0.34 Log2	
CCc1nn(CCCN2CCN(c3cccc(Cl)c3)CC2)c(=O)n1CCOc1ccccc1 [Nefazodone]			0.35 Log2	
NCC(=O)Nc1ccc(-n2nc(C(F)(F)F)cc2-c2ccc3c(ccc4ccccc43)c2)cc1 [OSU-03012]	−1.03 Log2	0.4965		LECT2 Fold Change (Log2) (LECT2): −0.77 Log2
Cc1c(C(=O)NN2CCCCC2)nn(-c2ccc(Cl)cc2Cl)c1-c1ccc(Cl)cc1 [Rimonabant]	−0.76 Log2	0.4538		LECT2 Fold Change (Log2) (LECT2): −0.81 Log2
O=C(NCCCn1ccnc1)c1cc(-c2ccco2)on1 [SKL2001]	−0.81 Log2	0.4323	0.45 Log2	
CNC1CCC(N(Cc2cccc(-c3ccncc3)c2)C(=O)c2sc3ccccc3c2Cl)CC1 (stereo not shown) [Smoothened Agonist]	−1.95 Log2	0.3035		
COc1cc2nccc(Oc3ccc(NC(=O)Nc4cc(C)on4)c(Cl)c3)c2cc1OC [Tivozanib]	−0.8 Log2	0.4204		
CN1C(=O)c2sccc2N(C)c2nc(Nc3ccc(S(N)(=O)=O)cc3)ncc21 [XMU-MP-1]			0.37 Log2	
COc1nc(N)nc2c1ncn2[C@@H]1O[C@H](COP(=O)(N[C@@H](C)C(=O)OCC(C)(C)C)Oc2cccc3ccccc23)[C@@H](O)[C@@]1(C)O (stereo partly shown) [bms-986094 (inx-189)]	−1.00 Log2			
